Experiments:
SirT6 = target: T1, SirT6 (Homo sapiens, UniProt Q8N6T7); assay: Determination of Kd of DNA for SirT6 activation by HPLC (Example 2); type: biochemical; details: 800 μM NAD, 480 μM H3, 10 μM SirT6, 2 hours 37° C.; fit Activation (fold)=1+m*x/(Kd+x)
T1 construct: The protein expression and purification were the same as the full length SIRT6 as described above; made in house; host or cells: E. coli BL21 Codon-plus RIPL
Description: FIG. 5A depicts a schematic of DNA structure. […] After 2 hours incubation at 37° C., either the deacetylated H3 was separated from H3 in the reaction containing the digested calf thymus DNA or AADPR was separated from other components in the reaction containing ssDNA, the plasmid, or dsDNA.
The plasmid pSTBlue was digested with BamHI and EcoRV and purified by […]™ III kit. […] The AADPR was separated by HPLC and the quantified data were fit into Michaelis-Menten equation to get Km of H3.
In the enzymatic reaction, the following DNA was used.
Calf thymus DNA (USB Corporation), which was digested with EcoRI and then purified using Spinprep Gel DNA Kit (Novagen);
ssDNA (5′ […] 3′ (SEQ ID NO: 9), Integrated DNA Technologies);
dsDNA (forward 5′ […] 3′ (SEQ ID NO: 10), reverse 5′ […] 3′ (SEQ ID NO: 11), Integrated DNA Technologies); and
pSTBlue plasmid, which was amplified using DH5α cells and purified by WIZARD™ PLUS (Midiprep) DNA purification system (Promega).
The precipitated proteins and other insolubles were removed by centrifugation at 15,000 rpm for 5 minutes. DNA in the supernatant was further removed by centrifugation at 15,000 rpm for 10 minutes using Microcon with 10 kDa cutoff (Millipore). In the experiment with the digested calf thymus DNA, the peptides were separated by a Waters Xterra RP-18 column using a gradient of 0-30% acetonitrile in 0.1% trifluoroacetic acid. […]

[1] = target: T2, truncated SirT6 (deletion of N terminal 17 amino acids) (Homo sapiens, UniProt Q8N6T7); assay: Deacetylation rate of truncated SirT6 with suramin or single stranded DNA; type: biochemical; details: 50 μM suramin or 100 ng/μl single stranded DNA; 800 μM NAD, 480 μM H3, 10 μM enzyme
T2 construct: The truncated SIRT6 was cloned similarly with the full length SIRT6; poly-histidine (pET28a) (N); made in house; host or cells: E. coli BL21 Codon-plus RIPL
Description: The deacetylation rate of different truncated SirT6 was normalized to the rate of full length SirT6 for the comparison.
The truncated SIRT6 was cloned similarly with the full length SIRT6. The primers used in the cloning of different truncated SIRT6 are the following: SIRT6Δ2-7 Forward 5′ GCTAGC ATGGGGCTGTCGCCGTACGCG 3′ (SEQ ID NO: 4); SIRT6Δ2-12 Forward 5′ GCTAGC ATG […] 3′ (SEQ ID NO: 5); SIRT6Δ2-18 Forward 5′ GCTAGC ATGGGCCTCCCGGAGATCTTCGAC 3′ (SEQ ID NO: 6); SIRT6Δ2-51 Forward 5′ 5′ GCTAGC ATGACGGGTGCCGGCATCAGCACT 3′ (SEQ ID NO: 7). The common reverse primer is 5′[…] 3′ (SEQ ID NO: 8). The truncated SIRT6 was amplified by PCR reaction. The PCR product was then ligated into pSTblue-1 (Novagen). After digestion with NheI and BamHI, the fragment containing SIRT6 gene was ligated into pET28a vector (Novagen). The SIRT6 truncated sequence in pET28a plasmid was confirmed by DNA sequencing, and the plasmid was then transformed into BL21Codon-plus RIPL cells (Stratagene). The protein expression and purification were the same as the full length SIRT6 as described above.

T1 sequence (Q8N6T7 whole entry): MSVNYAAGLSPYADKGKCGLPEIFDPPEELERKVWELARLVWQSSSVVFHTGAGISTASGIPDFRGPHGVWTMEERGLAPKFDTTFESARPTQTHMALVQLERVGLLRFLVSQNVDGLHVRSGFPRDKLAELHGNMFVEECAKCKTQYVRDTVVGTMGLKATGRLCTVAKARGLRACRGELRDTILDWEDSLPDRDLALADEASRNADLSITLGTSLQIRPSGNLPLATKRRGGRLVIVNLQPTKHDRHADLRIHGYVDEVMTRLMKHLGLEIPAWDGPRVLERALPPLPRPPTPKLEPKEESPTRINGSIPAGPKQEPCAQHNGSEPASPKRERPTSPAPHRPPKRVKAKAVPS
T2 sequence (Q8N6T7 with tags, fused parts or gaps): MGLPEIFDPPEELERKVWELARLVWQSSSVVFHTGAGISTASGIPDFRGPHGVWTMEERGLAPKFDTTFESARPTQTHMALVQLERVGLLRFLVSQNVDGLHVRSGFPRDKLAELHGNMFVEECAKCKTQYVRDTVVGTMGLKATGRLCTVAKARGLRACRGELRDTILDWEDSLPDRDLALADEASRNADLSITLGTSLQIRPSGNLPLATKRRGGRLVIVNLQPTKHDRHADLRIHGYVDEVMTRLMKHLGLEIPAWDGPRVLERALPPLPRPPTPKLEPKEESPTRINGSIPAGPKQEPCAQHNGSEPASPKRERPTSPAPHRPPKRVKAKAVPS

ssDNA: ssDNA 5′ GGGGATCCATGAAGATGAGCTTTGCGTTGACT 3′ (SEQ ID NO: 9), Integrated DNA Technologies (DNA, backbone and methylation of C not given here)
Kd of DNA for activation of SirT6 (SirT6): 127.7 µg/mL
Activation of truncated SirT6 deacetylation [1]: lost of activation
